In PubChem BioAssay (NCI):
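How tested: cells in 96-well plates exposed to compound for 48 hours at five concentrations. Here, GI50 denotes the concentration required for 50% inhibition of growth. TGI is the concentration that stops growth completely.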

Experiments:
Assay in all cases: NCI anticancer screen, dose series, 48 h
786-0 renal = tested on: 786-0 renal
A498 renal = tested on: A498 renal
A549 NSCLC = tested on: A549 NSCLC
ACHN renal = tested on: ACHN renal
BT-549 breast = tested on: BT-549 breast
CAKI-1 renal = tested on: CAKI-1 renal
COLO 205 colon = tested on: COLO 205 colon
DU-145 prostate = tested on: DU-145 prostate
EKVX NSCLC = tested on: EKVX NSCLC
HCC-2998 colon = tested on: HCC-2998 colon
HCT-116 colon = tested on: HCT-116 colon
HCT-15 colon = tested on: HCT-15 colon
HL-60(TB) leukemia = tested on: HL-60(TB) leukemia
HOP-62 NSCLC = tested on: HOP-62 NSCLC
HS 578T breast = tested on: HS 578T breast
HT29 colon = tested on: HT29 colon
IGROV1 ovarian = tested on: IGROV1 ovarian
K-562 leukemia = tested on: K-562 leukemia
KM12 colon = tested on: KM12 colon
LOX IMVI melanoma = tested on: LOX IMVI melanoma
M14 melanoma = tested on: M14 melanoma
MALME-3M melanoma = tested on: MALME-3M melanoma
MCF7 breast = tested on: MCF7 breast
MDA-MB-231 breast = tested on: MDA-MB-231 breast
MDA-MB-435 = tested on: MDA-MB-435
MOLT-4 leukemia = tested on: MOLT-4 leukemia
NCI-H226 lung = tested on: NCI-H226 lung
NCI-H23 lung = tested on: NCI-H23 lung
NCI-H460 lung = tested on: NCI-H460 lung
NCI-H522 lung = tested on: NCI-H522 lung
NCI/ADR-RES ovarian = tested on: NCI/ADR-RES ovarian
OVCAR-3 ovarian = tested on: OVCAR-3 ovarian
OVCAR-4 ovarian = tested on: OVCAR-4 ovarian
OVCAR-5 ovarian = tested on: OVCAR-5 ovarian
OVCAR-8 ovarian = tested on: OVCAR-8 ovarian
RXF 393 renal = tested on: RXF 393 renal
SF-268 CNS = tested on: SF-268 CNS
SF-295 CNS = tested on: SF-295 CNS
SF-539 CNS = tested on: SF-539 CNS
SK-MEL-2 melanoma = tested on: SK-MEL-2 melanoma
SK-MEL-28 melanoma = tested on: SK-MEL-28 melanoma
SK-MEL-5 melanoma = tested on: SK-MEL-5 melanoma
SK-OV-3 ovarian = tested on: SK-OV-3 ovarian
SN12C renal = tested on: SN12C renal
SNB-19 CNS = tested on: SNB-19 CNS
SR leukemia = tested on: SR leukemia
SW-620 colon = tested on: SW-620 colon
T-47D breast = tested on: T-47D breast
TK-10 renal = tested on: TK-10 renal
U251 CNS = tested on: U251 CNS
UACC-257 melanoma = tested on: UACC-257 melanoma
UACC-62 melanoma = tested on: UACC-62 melanoma
UO-31 renal = tested on: UO-31 renal

## c1cc2ccc3cc2cc1CNCCOCCNCc1ccc2ccc(cc2c1)CNCCOCCNC3
786-0 renal
  GI50: > 100 µM
  TGI: > 100 µM
A498 renal
  GI50: > 100 µM
  TGI: > 100 µM
A549 NSCLC
  GI50: > 100 µM
  TGI: > 100 µM
ACHN renal
  GI50: > 100 µM
  TGI: > 100 µM
BT-549 breast
  GI50: > 100 µM
  TGI: > 100 µM
CAKI-1 renal
  GI50: > 100 µM
  TGI: > 100 µM
COLO 205 colon
  GI50: > 100 µM
  TGI: > 100 µM
DU-145 prostate
  GI50: > 100 µM
  TGI: > 100 µM
EKVX NSCLC
  GI50: > 100 µM
  TGI: > 100 µM
HCC-2998 colon
  GI50: > 100 µM
  TGI: > 100 µM
HCT-116 colon
  GI50: > 100 µM
  TGI: > 100 µM
HCT-15 colon
  GI50: > 100 µM
  TGI: > 100 µM
HL-60(TB) leukemia
  GI50: > 100 µM
  TGI: > 100 µM
HOP-62 NSCLC
  GI50: > 100 µM
  TGI: > 100 µM
HS 578T breast
  GI50: > 100 µM
  TGI: > 100 µM
HT29 colon
  GI50: > 100 µM
  TGI: > 100 µM
IGROV1 ovarian
  GI50: > 100 µM
  TGI: > 100 µM
K-562 leukemia
  GI50: > 100 µM
  TGI: > 100 µM
KM12 colon
  GI50: > 100 µM
  TGI: > 100 µM
LOX IMVI melanoma
  GI50: > 100 µM
  TGI: > 100 µM
M14 melanoma
  GI50: > 100 µM
  TGI: > 100 µM
MALME-3M melanoma
  GI50: > 100 µM
  TGI: > 100 µM
MCF7 breast
  GI50: > 100 µM
  TGI: > 100 µM
MDA-MB-231 breast
  GI50: > 100 µM
  TGI: > 100 µM
MDA-MB-435
  GI50: > 100 µM
  TGI: > 100 µM
MOLT-4 leukemia
  GI50: > 100 µM
  TGI: > 100 µM
NCI-H226 lung
  GI50: > 100 µM
  TGI: > 100 µM
NCI-H23 lung
  GI50: > 100 µM
  TGI: > 100 µM
NCI-H460 lung
  GI50: > 100 µM
  TGI: > 100 µM
NCI-H522 lung
  GI50: > 100 µM
  TGI: > 100 µM
NCI/ADR-RES ovarian
  GI50: > 100 µM
  TGI: > 100 µM
OVCAR-3 ovarian
  GI50: > 100 µM
  TGI: > 100 µM
OVCAR-4 ovarian
  GI50: > 100 µM
  TGI: > 100 µM
OVCAR-5 ovarian
  GI50: > 100 µM
  TGI: > 100 µM
OVCAR-8 ovarian
  GI50: > 100 µM
  TGI: > 100 µM
RXF 393 renal
  GI50: > 100 µM
  TGI: > 100 µM
SF-268 CNS
  GI50: > 100 µM
  TGI: > 100 µM
SF-295 CNS
  GI50: > 100 µM
  TGI: > 100 µM
SF-539 CNS
  GI50: > 100 µM
  TGI: > 100 µM
SK-MEL-2 melanoma
  GI50: > 100 µM
  TGI: > 100 µM
SK-MEL-28 melanoma
  GI50: > 100 µM
  TGI: > 100 µM
SK-MEL-5 melanoma
  GI50: > 100 µM
  TGI: > 100 µM
SK-OV-3 ovarian
  GI50: > 100 µM
  TGI: > 100 µM
SN12C renal
  GI50: > 100 µM
  TGI: > 100 µM
SNB-19 CNS
  GI50: > 100 µM
  TGI: > 100 µM
SR leukemia
  GI50: > 100 µM
  TGI: > 100 µM
SW-620 colon
  GI50: > 100 µM
  TGI: > 100 µM
T-47D breast
  GI50: > 100 µM
  TGI: > 100 µM
TK-10 renal
  GI50: > 100 µM
  TGI: > 100 µM
U251 CNS
  GI50: > 100 µM
  TGI: > 100 µM
UACC-257 melanoma
  GI50: > 100 µM
  TGI: > 100 µM
UACC-62 melanoma
  GI50: > 100 µM
  TGI: > 100 µM
UO-31 renal
  GI50: > 100 µM
  TGI: > 100 µM
